Assay results from article PMC12171319, “3‐Oxabicyclo[3.1.1]heptane as an Isostere of meta‐Benzene” (Angewandte Chemie (International Ed. in English), 2025).
≈ marks a conversion by molar mass, not a printed value. Where “and” joins values, the source holds several entries; their conditions need not be identical. Identical values can stand only once. Like-named read-outs stand apart in the source and are kept apart here.

Columns and labels:
[1] = Preliminary thermal stability, heating at 100 °C for 5 min; type: physicochemical; conditions: monitored by 1H NMR and LC-MS
Source text: In addition, we checked the preliminary thermal stability of two representative 3‐oxabicyclo[3.1.1]heptanes: carboxylic acid 11b and N‐Boc amino acid 40.

[2] = system: Hedgehog signaling pathway; conditions: Mus musculus, NIH3T3, read-out: IC50 (HH signal): inhibition of the Hedgehog signaling pathway, Gli reporter NIH3T3 cell line
[3] = Metabolic stability in human liver microsomes; type: in vitro ADME; conditions: for remaining at […], 2 µM: 15 min
Method: 9. Metabolic Stability in Human Liver Microsomes
The objective of this study was to determine the metabolic stability of 3 test articles (EN300- […]
in human liver microsomes at five-time points over 40 minutes using HPLC-MS. Metabolic stability is defined as the percentage of parent compound lost over time in the presence of a metabolically active test system.
Potassium phosphate monobasic (Bio-Basic, Canada; Lot #N9016010)
Potassium phosphate dibasic (Bio-Basic, Canada; Lot #MA7100050) […]
Glucose-6-phosphate dehydrogenase from baker's yeast, type XV (Sigma-Aldrich, USA; Cat […]
D-Glucose-6-phosphate sodium salt (Sigma-Aldrich, USA; Cat #G7879-1G)
NADPH tetrasodium salt (BLD Pharmatech Ltd., Cat #BD116582)
Verapamil hydrochloride (Sigma Aldrich, USA; Cat #V4629)
Niclosamide (Sigma-Aldrich, USA; Cat #N3510)
DMSO stock solutions of the tested compounds 20 mM
Gradient HPLC system (Shimadzu)
Triple quadrupole mass-detector API 3000 with TurboIonSpray Ion Source (AB Sciex, Canada) […]
Multichannel pipettors 1-30 µL, 2-125 µL, 30-850 µL (Thermo Scientific) […]
All measurements were performed using the Shimadzu HPLC system including vacuum degasser, gradient pumps, reverse phase HPLC column, column oven, and autosampler. Mass spectrometric analysis was performed using an API 3000 mass spectrometer from Applied Biosystems/MDS Sciex (AB Sciex) with Turbo V ion source and TurboIonspray interface. The […]
and system control were performed using Analyst 1.6.3 software from AB Sciex.
Microsomal incubations were carried out in 96-well plates in 5 aliquots of 30 μL each (one for each time point). Liver microsomal incubation medium comprised of phosphate buffer (100 mM, pH 7.4), MgCl2 (3.3 mM), NADPН (3 mM), glucose-6-phosphate (5.3 mM), glucose-6-phosphate dehydrogenase (0.67 units/mL) with 0.42 mg of liver microsomal protein per mL. In the control reactions, the NADPH-cofactor system was substituted with phosphate buffer. Test compounds […]
100 rpm. Five-time points over 40 minutes were analyzed. The reactions were stopped by adding 5 volumes of acetonitrile with internal standard to incubation aliquots, followed by protein sedimentation by centrifuging at 5500 rpm for 5 min. Each reaction was performed in duplicates.
Supernatants were analyzed using the HPLC system coupled with a tandem mass spectrometer.
The elimination constant (kel), half-life (t1/2), and intrinsic clearance (Clint) were determined in a plot of […] versus time, using linear regression analysis:1
1 In order to indicate the quality of the linear regression analysis, the R2 (determination coefficient) values are provided.
In some cases, the last time point is excluded from the calculations to ensure acceptable logarithmic linearity of decay.

[4] = physchem
[5] = Kinetic solubility in phosphate-buffered saline, pH 7.4; type: physicochemical; conditions: for solubility at 2 h: PBS solubility
Method: page 239: 7. […] The data […] analysis software. […] page 240: Methods Kinetic solubility assay was performed according to Enamine's aqueous solubility SOP. Briefly, […] theoretical concentration of 400 μM in duplicates in phosphate-buffered saline pH 7.4 […] The experimental compound dilutions in PBS were further allowed to equilibrate at 25 °C on a thermostatic shaker for two hours and then filtered through HTS filter plates using a vacuum manifold. The filtrates of test […] prepared to theoretical concentrations of 0 μM (blank), 10 μM, 25 μM, 50 μM, 100 μM, and 200 […] Ondansetron was used as a reference compound to control proper assay performance. 200 μL of each sample was transferred to a 96-well plate and measured in the 230-550 nm range with a 5 nm step. The concentrations of compounds in PBS filtrate are calculated using a dedicated Microsoft Excel calculation script. Proper absorbance wavelengths for calculations are selected for each compound manually based on absorbance maximums (absolute absorbance unit values for the minimum and maximum concentration points within the 0 - 3 OD range). Each final dataset is visually evaluated by the operator, and goodness of fit (R2) is calculated for each calibration curve. […] close to the upper limit of the range may have higher actual solubility (e.g. 5'-deoxy-5- fluorouridine). The calibration curves are shown in Appendix*. […] Compound ID PBS solubility, pH 7.4, μM SE […] Ondansetron 128 126 127** 1.1 EN300-7362818 6 6 6 0.2 (Sonidegib) BCHep-Sonidegib (50) 5 3 4 0.9 Table S3. 2nd batch PBS solubility, pH 7.4, μM Compound ID SE […] Ondansetron 124 124 124** 0.1 EN300-45381956 (51) 34 34 34 0.2 *Goodness of fit (R2) in all titration curves as well as the variations between repeat measurements indicates a high quality of the experimental data in the current batch of test articles. **Ondansetron solubility data are consistent with those previously obtained. […]

[6] = Experimental pKa of carboxylic acids; type: physicochemical; conditions: for pKa: read-out: pKa (exp.)
Source text: We also studied the influence of the replacement of the methylene group for the oxygen atom in the bicyclo[3.1.1]heptane skeleton on the electronic properties. For that, we experimentally measured pK a values of the bicyclo[3.1.1]heptane carboxylic acid 49, the 3‐oxabicyclo[3.1.1]heptane carboxylic acid 18b, and meta‐methyl benzoic acid (48) as a reference (Figure 5).^[ [34] ^]

[7] = parameters: method as in earlier work; conditions: cited from earlier work
[8] = in vitro; conditions: human, 90 min, no verapamil; for Papp A→B: Caco-2, pH 7.4, Papp (AB); for Papp B→A: Caco-2, pH 7.4, Papp (BA)
[9] = both sexes, human, liver microsomes, pH 7.4, Table S6, 1st batch, 2 µM
[10] = 25 °C, pH 7.4, aqueous buffer, kinetic from dmso stock, pH 7.4, Incubation 1
[11] = 25 °C, pH 7.4, aqueous buffer, kinetic from dmso stock, pH 7.4, Incubation 2
[12] = 25 °C, pH 7.4, aqueous buffer, kinetic from dmso stock, pH 7.4, Mean
[13] = Table S4, 1st batch, incubation 1
[14] = Table S4, 1st batch, incubation 2
[15] = Table S4, 1st batch, incubation 3

Q: For `O=C(O)C12COCC(c3ccc(Br)cc3)(C1)C2` [Compound 11b], which thermal stability [1] is on record?
A: Its thermal stability is “remained stable”.

Q: What does the source list for `CC1CN(c2ccc(NC(=O)C34CCCC(c5ccc(OC(F)(F)F)cc5)(C3)C4)cn2)CC(C)O1` (centres unmarked) [Compound 50]?
A: IC50 [2]: 616 nM; half-life at 2 μM ([3]; both sexes, human, human liver microsomes, pH 7.4, human liver microsomes, read-out: t1/2: experimental half-time of a metabolic decomposition): 2 h; microsomal CLint at 2 μM ([3]; both sexes, human, human liver microsomes, pH 7.4, read-out: CLint: experimental metabolic stability in human liver microsomes): 14 µL/min/mg; remaining at 7 min, 2 µM [3, 9]: 92%; remaining at […], 2 µM [3, 9]: 98%; remaining at 25 min, 2 µM ([3]; both sexes, human, liver microsomes, pH 7.4, Table S6, 1st batch, 25 min, 2 µM): 88%; remaining at 40 min, 2 µM ([3]; both sexes, human, liver microsomes, pH 7.4, Table S6, 1st batch, 40 min, 2 µM, read-out: % Remaining, Mean of 2): 78%; remaining at 40 min, 2 µM ([3]; both sexes, human, liver microsomes, pH 7.4, Table S6, 1st batch, 40 min, no NADPH, read-out: % Remaining without cofactor, Mean of 2): 93%; k el at 2 µM ([3]; both sexes, human, liver microsomes, pH 7.4, Table S6, 1st batch): ~0.0001 s⁻¹; microsomal CLint at 2 μM ([3]; both sexes, human, liver microsomes, pH 7.4, Table S6, 1st batch, read-out: Clint): ~14 µL/min/mg; half-life at 2 μM ([3]; both sexes, human, liver microsomes, pH 7.4, Table S6, 1st batch, read-out: t1/2): ~2 h; logD at 1 h ([4]; pH 7.4, LogD, pH 7.4): ≥ 4.5; logD at 1 h ([4]; pH 7.4, LogD, pH 7.4 (overall of 3 incubations)): ≥ 4.5; logD at 1 h ([4]; pH 7.4, logD (7.4): experimental distribution coefficient in n-octanol/phosphate-buffered saline, pH 7.4): ≥ 4; solubility kinetic at 2 h ([5]; 25 °C, pH 7.4, aqueous buffer, kinetic from dmso stock): 4 µM (≈ 1.96 µg/mL); solubility at 2 h [5, 10]: 5 µM (≈ 2.45 µg/mL); solubility at 2 h [5, 11]: 3 µM (≈ 1.47 µg/mL); solubility at 2 h [5, 12]: 4 µM (≈ 1.96 µg/mL); D [13]: 8.66E+04; D [14]: 8.31E+04; D [15]: 8.70E+04

Q: For `CC12COCC(C(=O)O)(C1)C2` [Compound 18b], which “pKa (exp.)” value [6] is on record?
A: Its value is 4.2.

Q: What about the pKa [6] of the same compound?
A: Its pKa is 4.23.

Q: Which thermal stability [1] does the source give for `CC(C)(C)OC(=O)NC12COCC(C(=O)O)(C1)C2` [Compound 40] here?
A: Its thermal stability is “remained stable”.

Q: With `Cc1nccn1CC1CCc2c(c3ccccc3n2C)C1=O` (centres unmarked) [Ondansetron] as the compound, how does the solubility at 2 h [5, 10] read?
A: The solubility at 2 h was 124 µM (≈ 36.4 µg/mL).

Q: What about the solubility at 2 h [5, 11] of the same compound?
A: Its solubility at 2 h is 124 µM (≈ 36.4 µg/mL).

Q: What about the solubility at 2 h [5, 12] of the same compound?
A: Its solubility at 2 h is 124 µM (≈ 36.4 µg/mL).

Q: And the “PBS solubility, pH 7.4, Mean” value ([5]; Table S2, 1st batch)?
A: The value was 127 µM.

Q: Which “% Remaining, Mean of 2” value ([3]; Table S6, 1st batch, 25 min, 2 µM) does the source give for `O=C(O)Cc1ccccc1Nc1c(Cl)cccc1Cl` [Diclofenac] here?
A: Its value is 4%.

Q: What about the “% Remaining without cofactor, Mean of 2” value ([3]; Table S6, 1st batch, 40 min, no NADPH) of the same compound?
A: The value was 95%.

Q: What about the “% Remaining, Mean of 2” value ([3]; Table S7, 2nd batch, 25 min, 2 µM) of the same compound?
A: Its value is 11%.

Q: What about the “% Remaining, Mean of 2” value ([3]; Table S7, 2nd batch, 40 min, 2 µM) of the same compound?
A: The value was 2%.

Q: What about the remaining at 7 min, 2 µM [3, 9] of the same compound?
A: The remaining at 7 min, 2 µM was 46%.

Q: What about the remaining at […], 2 µM [3, 9] of the same compound?
A: Its remaining at […], 2 µM is 15%.

Q: What about the remaining at […], 2 µM ([3]; both sexes, human, liver microsomes, pH 7.4, Table S7, 2nd batch, 2 µM) of the same compound?
A: Its remaining at […], 2 µM is 26%.

Q: What about the microsomal CLint at 2 μM ([3]; both sexes, human, liver microsomes, pH 7.4, Table S7, 2nd batch, read-out: Clint) of the same compound?
A: The microsomal CLint at 2 μM was 223 µL/min/mg.

Q: Which “pKa (exp.)” value [7] does the source give for `Cc1cccc(C(=O)O)c1` [Compound 48, meta‐methyl benzoic acid] here?
A: Its value is 4.27 and 4.3.

Q: What does the source list for `COC(=O)Nc1nc2ccc(C(=O)c3ccccc3)cc2[nH]1` [Mebendazole]?
A: logD at 1 h ([4]; pH 7.4, LogD, pH 7.4): 3.06; D [13]: 8.21E+02; D [14]: 8.87E+02; D [15]: 8.17E+02; D (Table S5, 2nd batch, incubation 1): 9.52E+02; D (Table S5, 2nd batch, incubation 2): 1.14E+03; D (Table S5, 2nd batch, incubation 3): 8.63E+02

Q: Which Papp A→B ([8]; Mean, 10 µM) does the source give for `CC(C(=O)O)c1cccc(C(=O)c2ccccc2)c1` (centres unmarked) [Ketoprofen] here?
A: The Papp A→B was 21.8 ×10⁻⁶ cm/s.

Q: What about the Papp A→B ([8]; replicate 1, 10 µM) of the same compound?
A: The Papp A→B was 19.8 ×10⁻⁶ cm/s.

Q: What about the Papp A→B ([8]; replicate 2, 10 µM) of the same compound?
A: Its Papp A→B is 23.8 ×10⁻⁶ cm/s.

Q: And the Papp B→A ([8]; Mean, 10 µM)?
A: The Papp B→A was 18.7 ×10⁻⁶ cm/s.

Q: And the Papp B→A ([8]; replicate 1, 10 µM)?
A: Its Papp B→A is 19.5 ×10⁻⁶ cm/s.

Q: What about the Papp B→A ([8]; replicate 2, 10 µM) of the same compound?
A: The Papp B→A was 17.9 ×10⁻⁶ cm/s.

Q: With `CC12CCCC(C(=O)O)(C1)C2` [Compound 49] as the compound, how does the “pKa (exp.)” value [6] read?
A: The value was 5.0.

Q: What about the pKa [6] of the same compound?
A: The pKa was 5.03.
